Publication PMC3425516 (PLoS ONE, 2012)

Key:
Experiment in all cases: NCI-60 cell lines screening
Assay type in all cases: cell-based, human
UO-31 = settings: UO-31, Renal Cancer panel
Procedure: (§1) The NCI-60 cancer cell lines screening was conducted by the NCI’s Developmental Therapeutics Program (DTP; http://www.dtp.nci.nih.gov/branches/btb/ivclsp.html).

PC-3 = settings: PC-3, Prostate Cancer panel
Procedure: as §1

RPMI-8226 = settings: RPMI-8226, Leukemia panel
Procedure: as §1

786-0 = settings: 786-0, Renal Cancer panel
Procedure: as §1

MDA-MB-435 = settings: MDA-MB-435, Melanoma panel
Procedure: as §1

UACC-62 = settings: UACC-62, Melanoma panel
Procedure: as §1

M14 = settings: M14, Melanoma panel
Procedure: as §1

HOP-92 = settings: HOP-92, Non-Small Cell Lung Cancer panel
Procedure: as §1

HCC-2998 = settings: HCC-2998, Colon Cancer panel
Procedure: as §1

SK-MEL-2 = settings: SK-MEL-2, Melanoma panel
Procedure: as §1

TK-10 = settings: TK-10, Renal Cancer panel
Procedure: as §1

CCRF-CEM = settings: Leukemia panel
Procedure: as §1

HOP-62 = settings: HOP-62, Non-Small Cell Lung Cancer panel
Procedure: as §1

SR = settings: Leukemia panel
Procedure: as §1

NCI-H322M = settings: Non-Small Cell Lung Cancer panel
Procedure: as §1

MALME-3M = settings: Melanoma panel
Procedure: as §1

NCI/ADR-RES = settings: Ovarian Cancer panel
Procedure: as §1

A549/ATCC = settings: Non-Small Cell Lung Cancer panel
Procedure: as §1

A498 = settings: A498, Renal Cancer panel
Procedure: as §1

HS 578T = system: HS 578T
Procedure: as §1

BT-549 = settings: BT-549, Breast Cancer panel
Procedure: as §1

MOLT-4 = settings: MOLT-4, Leukemia panel
Procedure: as §1

SF-295 = settings: SF-295, CNS Cancer panel
Procedure: as §1

COLO 205 = settings: COLO 205, Colon Cancer panel
Procedure: as §1

CAKI-1 = settings: CAKI-1, Renal Cancer panel
Procedure: as §1

NCI-H522 = settings: NCI-H522, Non-Small Cell Lung Cancer panel
Procedure: as §1

SNB-75 = settings: SNB-75, CNS Cancer panel
Procedure: as §1

LOX IMVE = settings: Melanoma panel
Procedure: as §1

SN12C = settings: Renal Cancer panel
Procedure: as §1

NCI-H23 = settings: NCI-H23, Non-Small Cell Lung Cancer panel
Procedure: as §1

[1] = Homo sapiens, read-out: LC50 (the source's name)

With `O=C(C=Cc1ccc2c(c1)CCN2S(=O)(=O)c1ccccc1)NO` [MPT0E028, 3-(1-benzenesulfonyl-2,3-dihydro-1H-indol-5-yl)-N-hydroxy-acrylamide] the GI50 (UO-31; Homo sapiens) was 169 nM, the CC50 (UO-31; [1]) was 5630 nM and the TGI (UO-31) was 1460 nM. For the same compound, the GI50 (PC-3; Homo sapiens) was 240 nM, the CC50 (PC-3; [1]) was over 100000 nM and the TGI (PC-3) was 21000 nM. It also gave a GI50 (RPMI-8226; Homo sapiens) of 81.1 nM, a CC50 (RPMI-8226; [1]) of over 100000 nM and a TGI (RPMI-8226) of over 100000 nM. It also gave a TGI (786-0) of 1330 nM, a GI50 (786-0; Homo sapiens) of 300 nM and a CC50 (786-0; [1]) of 4020 nM. It also gave a GI50 (MDA-MB-435; Homo sapiens) of 146 nM, a CC50 (MDA-MB-435; [1]) of 11300 nM and a TGI (MDA-MB-435) of 706 nM. It also gave a GI50 (UACC-62; Homo sapiens) of 71.6 nM, a TGI (UACC-62) of 339 nM and a GI50 (M14; Homo sapiens) of 179 nM. The CC50 (M14; [1]) was 6450 nM, the TGI (M14) was 1110 nM and the TGI (HOP-92) was 814 nM. The GI50 (HOP-92; Homo sapiens) was 210 nM, the CC50 (HOP-92; [1]) was 18000 nM and the TGI (HCC-2998) was 522 nM. It also gave a GI50 (HCC-2998; Homo sapiens) of 194 nM, a CC50 (HCC-2998; [1]) of 2060 nM and a GI50 (SK-MEL-2; Homo sapiens) of 433 nM. The CC50 (SK-MEL-2; [1]) was 34900 nM, the TGI (SK-MEL-2) was 3890 nM and the GI50 (TK-10; Homo sapiens) was 103 nM. The CC50 (TK-10; [1]) was 33600 nM, the TGI (TK-10) was 660 nM and the GI50 (CCRF-CEM; Homo sapiens) was 165 nM. It also gave a CC50 (CCRF-CEM; [1]) of over 100000 nM, a TGI (CCRF-CEM) of over 100000 nM and a TGI (HOP-62) of 1060 nM. It also gave a GI50 (HOP-62; Homo sapiens) of 187 nM, a CC50 (HOP-62; [1]) of 19200 nM and a GI50 (SR; Homo sapiens) of 60.1 nM. The CC50 (SR; [1]) was over 100000 nM, the TGI (SR) was over 100000 nM and the GI50 (NCI-H322M; Homo sapiens) was 186 nM. For the same compound, the CC50 (NCI-H322M; [1]) was over 100000 nM, the TGI (NCI-H322M) was 11400 nM and the GI50 (MALME-3M; Homo sapiens) was 37.5 nM. The CC50 (MALME-3M; [1]) was over 100000 nM, the TGI (MALME-3M) was 907 nM and the GI50 (NCI/ADR-RES; Homo sapiens) was 38.5 nM. It also gave a CC50 (NCI/ADR-RES; [1]) of over 100000 nM, a TGI (NCI/ADR-RES) of 239 nM and a GI50 (A549/ATCC; Homo sapiens) of 230 nM. The CC50 (A549/ATCC; [1]) was 9030 nM, the TGI (A549/ATCC) was 1090 nM and the TGI (A498) was 1130 nM. It also gave a GI50 (A498; Homo sapiens) of 243 nM, a CC50 (A498; [1]) of 5130 nM and a TGI (HS 578T; HS 578T, Breast Cancer panel) of 17900 nM. It also gave a GI50 (HS 578T; Homo sapiens, Hs-578T) of 253 nM, a CC50 (HS 578T; Homo sapiens, Hs-578T, read-out: LC50 (the source's name)) of over 100000 nM and a TGI (BT-549) of 5840 nM. For the same compound, the GI50 (BT-549; Homo sapiens) was 680 nM, the CC50 (BT-549; [1]) was over 100000 nM and the GI50 (MOLT-4; Homo sapiens) was 317 nM. The CC50 (MOLT-4; [1]) was over 100000 nM, the TGI (MOLT-4) was over 100000 nM and the GI50 (SF-295; Homo sapiens) was 60.3 nM. For the same compound, the CC50 (SF-295; [1]) was 2430 nM, the TGI (SF-295) was 340 nM and the TGI (COLO 205) was 264 nM. The GI50 (COLO 205; Homo sapiens) was 128 nM, the CC50 (COLO 205; [1]) was 546 nM and the TGI (CAKI-1) was 959 nM. It also gave a GI50 (CAKI-1; Homo sapiens) of 218 nM, a CC50 (CAKI-1; [1]) of over 100000 nM and a GI50 (NCI-H522; Homo sapiens) of 167 nM. The CC50 (NCI-H522; [1]) was 13000 nM, the TGI (NCI-H522) was 845 nM and the GI50 (SNB-75; Homo sapiens) was 59.1 nM. The CC50 (SNB-75; [1]) was 32800 nM, the TGI (SNB-75) was 6270 nM and the GI50 (LOX IMVE; Homo sapiens) was 222 nM. For the same compound, the CC50 (LOX IMVE; [1]) was 2880 nM, the TGI (LOX IMVE) was 718 nM and the GI50 (SN12C; Homo sapiens) was 458 nM. For the same compound, the CC50 (SN12C; [1]) was over 100000 nM, the TGI (SN12C) was 10200 nM and the GI50 (NCI-H23; Homo sapiens) was 188 nM. For the same compound, the CC50 (NCI-H23; [1]) was 3840 nM and the TGI (NCI-H23) was 922 nM.
